“Also recorded” adds a separate entry of the source.
Legend:
hPPARγ = biological target: T1, hPPARγ (Homo sapiens, UniProt P37231); assay: PPARγ ligand trap (LT) zebrafish GFP reporter screen/assay; assay type: in vivo; set-up: pLT PPARα (aa 178-468) and pLT PPAR γ (aa 188-477) lines; expressed in transfected cells; host or cells: transgenic zebrafish embryos (heat-induced ligand-trap line); details: transgenic embryos, 48 hpf images
T1 sequence (P37231 188-477 isoform P37231-2): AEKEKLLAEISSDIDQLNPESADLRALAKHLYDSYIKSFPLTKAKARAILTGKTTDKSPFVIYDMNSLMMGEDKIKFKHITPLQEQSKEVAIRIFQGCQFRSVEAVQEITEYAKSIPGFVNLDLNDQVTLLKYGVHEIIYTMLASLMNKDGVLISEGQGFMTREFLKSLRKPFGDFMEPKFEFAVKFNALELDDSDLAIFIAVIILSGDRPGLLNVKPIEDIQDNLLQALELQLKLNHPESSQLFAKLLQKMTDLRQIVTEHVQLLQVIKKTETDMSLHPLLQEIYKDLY
Method: Digested DNA was adjusted with 0.1% phenol red. 4.6 nl of DNA solution was injected into the blastomeres of early one-cell stage embryos.
(§1) F0 fish were crossed with WT fish to identify germ-line transformed animals, as determined by agonist treatments and GFP expression. F1 progeny showing strong and consistent GFP responses were selected for F2 homozygote production. To avoid reporter GFP silencing of stable transgenic LT lines, homozygous fish showing strong and consistent GFP responses were selected for continued propagation of next generations.
PPARγ ligand trap zebrafish screens were performed under optimized conditions in 96-well format using the ImageXpress Velos Laser Scanning Cytometer. 1 or 2 dpf embryos were heat induced (28→37° C.) for 30 minutes, de-chorionated and then arrayed in 96-well plates (5 per well). Embryo water (0.075 g/L NaHCO3, 0.018 g/L Sea salt, 0.0084 g/L CaSO42H2O) was removed and 200 μl of fresh embryo water/well including dissolved small molecules or solvent was added.
Also included was the CoQ10 analog idebenone.

C57Bl/6 db/db mice = assay: db/db mouse study (NAFLD features); assay type: in vivo; details: 10 mpk in food, 3 weeks, versus vehicle
Method: Db/db study: Forty male C57Bl/6 db/db mice (called B6.BKS(D)-Lepr db/J) were ordered from Jackson Laboratories (#000697) at 7 weeks of age. Mice were housed individually with free access to food (2016 Teklad Global 16% Protein Rodent Diet) and water on a 14 hour light/dark cycle (6 a.m. to 8 p.m. light). […] Food was exchanged on a daily bases. Harlan corn cob bedding was provided and was changed every week or as needed. Following a 1 week acclimation, 32 mice were chosen based on desired body weight range. Remaining mice were euthanized. Mice were randomized by body weight into four treatment groups (n=8) by body weight. Dosing occurred for 21 days. Mice were euthanized by CO2 euthanasia and livers were fixed in neutral buffered formalin (NBF) for 24 h, followed by a one day fixation in 30% Sucrose and 10% Sucrose. Oil O Red staining was performed through the Pathology Research Program at the University Health Network in Toronto [46]. [table] 100 mg of db/db livers were homogenized in RIPA buffer and protein concentration was quantified using a BCA protein assay kit (Cell signalling #7780) followed by measurement of ‘Thiobarbituric Acid Reactive Substances’ (TBARS) using a TBARS assay kit (Cayman Chemicals #10009055). Total RNA was extracted from 100 mg of db/db livers using RNA STAT-60 (Tel-Test, Inc.), treated with DNase I (RNase-free, Roche), and reverse transcribed into cDNA with random hexamers using the High Capacity Reverse transcription system (Applied Biosystems, ABI). Primers used are shown below and were validated as previously described. Real-time QPCR reactions were performed on an ABI 7900 in 384-well plates containing 12.5 ng cDNA, 150 nM of each primer, and 5 μl 2×SYBR Green PCR Master Mix (ABI) in a 10 μl total volume. Relative mRNA levels were calculated using the comparative Ct method normalized to cyclophilin mRNA.

[1] = biological target: T2, human PPARγ LBD (residues 206-477) (Homo sapiens, UniProt P37231); assay: Stargazer thermostabilization assay; assay type: binding; details: 0.2 mg/ml PPARγ LBD, heated to 80° C.
T2 construct: human PPARγ LBD (residues 206-477), expressed in pRSET; His tag (implied by Ni-NTA purification and the pRSET vector); made in house; host or cells: E. coli BL21 codon plus (pRSET)
T2 sequence (P37231 206-477 isoform P37231-2): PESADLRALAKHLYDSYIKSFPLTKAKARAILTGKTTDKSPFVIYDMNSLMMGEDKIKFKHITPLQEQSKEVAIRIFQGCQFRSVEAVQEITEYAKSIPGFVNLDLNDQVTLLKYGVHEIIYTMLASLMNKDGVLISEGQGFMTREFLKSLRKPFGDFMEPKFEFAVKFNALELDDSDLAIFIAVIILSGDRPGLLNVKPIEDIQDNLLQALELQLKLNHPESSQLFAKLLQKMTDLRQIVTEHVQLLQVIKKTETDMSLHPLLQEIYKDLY

[2] = system: GFP-expressing leukocytes recruited in response to CuSO4; assay: Zebrafish inflammation assay (CuSO4); assay type: in vivo; details: 10 μM CuSO4, 55 hpf embryos
Method: Assay was performed as described in [47]. Fifteen dechorionated 55 hpf (hours post fertilization) embryos were transferred in each well of 6-well plates in 6 ml of embryo water. Idebenone was added at increasing concentrations (0.25, 0.75, 1.5, 3 and 5 μM). Embryos were incubated in the dark for 1 hr at 28 C, followed by a second 40 min incubation with copper sulfate (CuSO4) at a final concentration of 10 μM at 28 C in the dark. Embryos were then transferred to Eppendorf tubes and fixed in 4% paraformaldehyde in 1×PBS overnight at 4 C in the dark. Numbers of GFP+ cells were counted along the lateral line/neuromast clusters.
Previous studies have shown that PPAR agonists have anti-inflammatory properties, and can be used to treat a variety of inflammatory responses. To test if this is also true for idebenone, we used a zebrafish model of inflammation. Exposure of fish larvae to copper sulfate causes non-invasive damage to neuromast cells, which form external clusters along the lateral midline. This inflammation can be visualized via the recruitment of GFP-expressing leukocytes. As expected, this recruitment of GFP positive cells could be alleviated by addition of the known anti-inflammatory agent ibuprofen (FIG. 11).

hPPARδ/β = biological target: T3, hPPARδ/β (Homo sapiens, UniProt Q03181); assay: HEK293 cell culture luciferase reporter assay, hPPARδ/β; details: read-out: EC50 hPPARδ/β; HEK293, GAL4-hPPARδ/β LBD, luciferase
T3 sequence (Q03181 143-441): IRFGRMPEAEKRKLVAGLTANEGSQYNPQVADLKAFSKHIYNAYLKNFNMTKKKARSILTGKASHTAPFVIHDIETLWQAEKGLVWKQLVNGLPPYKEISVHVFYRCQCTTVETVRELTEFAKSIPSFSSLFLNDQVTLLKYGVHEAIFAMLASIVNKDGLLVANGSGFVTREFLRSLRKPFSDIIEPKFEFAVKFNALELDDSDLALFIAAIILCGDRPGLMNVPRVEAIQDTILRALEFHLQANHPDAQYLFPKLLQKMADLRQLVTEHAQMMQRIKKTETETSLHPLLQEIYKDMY

PPARα = biological target: T4, PPARα (Homo sapiens, UniProt Q07869); assay: PPARα ligand trap zebrafish GFP reporter assay; assay type: in vivo; set-up: pLT PPARα (aa 178-468) and pLT PPAR γ (aa 188-477) lines; expressed in transfected cells; host or cells: transgenic zebrafish embryos (ligand-trap line); details: transgenic embryos, 48 hpf
T4 sequence (Q07869 178-468): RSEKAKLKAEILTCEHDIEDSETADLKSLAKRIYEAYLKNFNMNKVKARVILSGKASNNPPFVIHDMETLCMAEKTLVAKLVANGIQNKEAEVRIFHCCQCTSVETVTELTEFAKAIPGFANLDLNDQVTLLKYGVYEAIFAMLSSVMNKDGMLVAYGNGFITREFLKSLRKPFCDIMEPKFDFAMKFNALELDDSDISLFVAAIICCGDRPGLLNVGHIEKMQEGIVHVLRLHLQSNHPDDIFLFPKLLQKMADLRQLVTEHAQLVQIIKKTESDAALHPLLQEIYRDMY
Method: Zebrafish were maintained at 28.5° C. on a 14/10 hour light/dark cycle and staged according to hours (h) or days (d) postfertilization. To generate pLT PPARα (aa 178-468) and pLT PPAR γ (aa 188-477) lines, plasmids were pre-digested with I-SceI (0.8 μg DNA, 1 μl I-SceI (New England Biolabs) 2 μl 10×I-SceI buffer, 1 μl BSA) for 20 min at 37° C. Digested DNA was adjusted with 0.1% phenol red. 4.6 nl of DNA solution was injected into the blastomeres of early one-cell stage embryos.
as §1
PPARγ ligand trap zebrafish screens were performed under optimized conditions in 96-well format using the ImageXpress Velos Laser Scanning Cytometer. 1 or 2 dpf embryos were heat induced (28→37° C.) for 30 minutes, de-chorionated and then arrayed in 96-well plates (5 per well). […] Embryos were incubated at 28° C. for 14 h, anesthetized with Tricaine (Sigma, Cat. # A-5040) and then analyzed for GFP fluorescence using the ImageXpress Velos Laser Scanning Cytometer.

PPARδ/β = biological target: T5, PPARδ/β (Homo sapiens, UniProt Q03181); assay: PPARδ/β ligand trap transgenic zebrafish line; details: in vivo
T5 construct: expressed in transfected cells; host or cells: transgenic zebrafish embryos (ligand-trap line)
T5 sequence (Q03181 211-439 limits assumed): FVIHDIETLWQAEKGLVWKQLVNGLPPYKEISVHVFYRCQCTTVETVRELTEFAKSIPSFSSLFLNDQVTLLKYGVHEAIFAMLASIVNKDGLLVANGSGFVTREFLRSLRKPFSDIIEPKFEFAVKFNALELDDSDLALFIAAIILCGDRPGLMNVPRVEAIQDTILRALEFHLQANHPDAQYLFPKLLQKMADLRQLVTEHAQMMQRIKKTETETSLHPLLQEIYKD
Method: To test for specificity, idebenone and CoQ10 were also tested on PPARα, and PPARδ/β receptors in vivo and in vitro. […] The same relative responses were obtained with HEK 293 cells grown in culture and transfected with PPAR expression vectors and luciferase reporters (FIG. 5).

SMILES: COC1=C(OC)C(=O)C(CCCCCCCCCC[P+](c2ccccc2)(c2ccccc2)c2ccccc2)=C(C)C1=O [MitoQ, 10-[4,5-dimethoxy-2-methyl-3,6-dioxo-1,4-cycloheexadienl-yl]decyl triphenylphosphonium methanesulfonate]
- GFP reporter activation in LT-PPARγ embryos (hPPARγ): failed to activate; also recorded: no activation

SMILES: CN(CCOc1ccc(CC2SC(=O)NC2=O)cc1)c1ccccn1 (stereo not shown) [rosiglitazone]
- Gain in liver weight (C57Bl/6 db/db mice): 8.6%

SMILES: COC1=C(OC)C(=O)C(C/C=C(\C)CCC=C(C)C)=C(C)C1=O [CoQ2, coenzyme Q2]
- GFP reporter activation in LT-PPARγ embryos (hPPARγ): activity similar to idebenone and CoQ10

SMILES: COC1=C(OC)C(=O)C(CC=C(C)C)=C(C)C1=O [CoQ1, coenzyme Q1]
- GFP reporter activation in LT-PPARγ embryos (hPPARγ): relatively weak activity; also recorded: weak PPARγ activation

SMILES: COC1=C(OC)C(=O)C(C)=CC1=O [CoQ0, Coenzyme Q0]
- Shift of thermal denaturation transition temperature [1]: 8.5 °C
- GFP reporter activation in LT-PPARγ embryos (hPPARγ): relatively weak activity; also recorded: weak PPARγ activation

SMILES: O=C1C=CC(=O)C=C1 [1,4-benzoquinone]
- GFP reporter activation in LT-PPARγ embryos (hPPARγ): did not induce a detectable response
- GFP reporter activation in LT-PPARγ embryos (hPPARγ; listed as benzoquinone): no reporter activation

SMILES: CC(C)Cc1ccc(C(C)C(=O)O)cc1 (stereo not shown) [Ibuprofen]
- Recruitment of GFP positive leukocytes (anti-inflammatory activity) [2]: alleviated

SMILES: O=C(O)COc1ccc(SCC=C(c2ccc(Br)cc2)c2ccc(Br)cc2)cc1Cl [CAY10592]
- EC50 (hPPARδ/β): 12.8 nM

SMILES: COC1=C(OC)C(=O)C(C/C=C(\C)CC/C=C(\C)CC/C=C(\C)CC/C=C(\C)CC/C=C(\C)CC/C=C(\C)CC/C=C(\C)CC/C=C(\C)CC/C=C(\C)CCC=C(C)C)=C(C)C1=O [CoQ10, coenzyme Q10]
- GFP response of PPARα LT line (PPARα): robust response; also recorded: dual agonists for PPARα and PPARγ
- GFP reporter activation in LT-PPARγ embryos (hPPARγ): dual agonists for PPARα and PPARγ
- Response of PPARδ/β transgenic line (PPARδ/β): no response
